Results taken from patent publication US7632506B2, “Identification of new NY-ESO-1 epitopes recognized by CD4+ T-cells” (Ludwig Institute for Cancer Research, priority 2005, dated 2009).

System: CD4+ T cells
Test: IFN-γ ELISPOT of CD4+ T cells presensitized with overlapping NY-ESO-1 18 mer peptides
Assay type: cell-based, human
Conditions: for Patient T cells 1 / Patient T cells 2 / Patient T cells 3: IFN-γ ELISPOT; for Patient T cells 1: day 12, CD4+ T cells of patient 1, autologous peptide pulsed EBV-B cells as targets; for Patient T cells 2: day 12, CD4+ T cells of patient 2, autologous peptide pulsed EBV-B cells as targets; for Patient T cells 3: day 12, CD4+ T cells of patient 3, autologous peptide pulsed EBV-B cells as targets; for patients whose CD4+ T cells recognized the peptide: three patients tested
Procedure: Peripheral blood mono-nuclear cells (“PBMCs”) were separated from heparinized blood via Ficoll density gradient separation, using standard, art recognized techniques. Once this was done, the CD4^+ and CD8^+ T cells were separated from each other using magnetic cell sorting techniques which are well known to the art, producing CD4^+, CD8^+, and CD4^−/CD8^− cell populations.
A series of 18 mer peptides were prepared from the amino acid sequence of NY-ESO-1 as set forth in, e.g., U.S. Pat. No. 5,804,381, incorporated by reference. The peptides were designed to cover the entire sequence of NY-ESO-1, and to provide overlap.
The peptides were then individually pulsed to antigen presenting cells (“APCs”). These were CD4^−/CD8^− PBMCs taken from the same subjects who had provided the CD4^+ and CD8^+ cells. These APCs were irradiated with 3000 rads, and then pulsed with one of the peptides, at a concentration of 10 μg/ml, for 1 hour, in serum free medium. These APCs were then washed, and added to the CD4^+ cells. In the pulsing experiments, the peptides were solubilized in DMSO (100%) and then diluted with PBS to a final concentration of 10% DMSO. The CD4^+ cells had been cultured in a medium of L-arginine (242 mg/l), L-asparagene (50 mg/l), L-glutamine (300 mg/l), penicillin (10 IU/ml), streptomycin (100 μg/ml), 1% non-essential amino acids, 10% HS, and 10 ng/ml of recombinant human IL-2.
The CD4^+ T cells were restimulated weekly with 1 μg/ml of the peptide being used. On day 12, each CD4^+ culture was assayed for NY-ESO-1 peptide recognition, using the ELISPOT assay of lager, et al., Proc. Natl. Acad. Sci. USA, 97(9):4760-4765 (2000), incorporated by reference. To elaborate on this procedure, flat-bottomed, 96-well nitrocellulose plates were coated with 5 μg/ml of anti-interferon-gamma antibody and incubated overnight at 4° C. After washing with PBS, plates were blocked with 10% human serum (HS) for 1 hour at 37° C. Depending on the effector:target ratio used, various numbers of presensitized CD4^+ T-cells were added to each well along with 5×10^4 autologous peptide pulsed EBV transfected B cells (“EBV-B cells”) serving as target cells and incubated for 16 hours at 37° C. in TCM without IL-2. Plates were then washed extensively (6 times with a solution of 0.05% Tween 20/PBS), and biotinylated anti-interferon-gamma detection antibody was added at a concentration of 0.5 μg/ml. After incubation for 2 h at 37° C., plates were washed and incubated with ABC-AP Vectastain for 1 hour. Plates were washed again and developed with substrate (BCIP/NPT) until blue spots were visible. The number of blue spots/well represented the proportion of NY-ESO-1 specific CD4^+ T-cells/well was finally counted under the microscope.
The EBV-B-cells were generated from each patients' PBMC following standard methods and maintained in RPMI 1640 medium supplemented with 10 mM Hepes buffer, L-arginine (242 mg/l), L-asparagine (50mg/l), L-glutamine (300 mg/l), penicillin (10 IU/ml), streptomycin (100 μg/ml), 1% non-essential amino acids, and 10% FCS. […] PBMC's or EBV-B-cells were molecularly typed for HLA expression using standard procedures.

Row | Substance | Patient T cells 1 | Patient T cells 2 | Patient T cells 3 | patients whose CD4+ T cells recognized the peptide
1 | P13-30: synthetic 18 mer peptide, amino acids 13-30 of NY-ESO-1 (GDADGPGGPGIPDGPGGN; UniProt P78358 13-30, looked up, fragment) [Peptide P13-30] | − (− indicates <50 spots) | − (− indicates <50 spots) | − (− indicates <50 spots) | 
2 | P19-36: synthetic 18 mer peptide, amino acids 19-36 of NY-ESO-1 (GGPGIPDGPGGNAGGPGE; UniProt P78358 19-36, looked up, fragment) [Peptide P19-36] | − (− indicates <50 spots) | − (− indicates <50 spots) | − (− indicates <50 spots) | 
3 | P25-42: synthetic 18 mer peptide, amino acids 25-42 of NY-ESO-1 (DGPGGNAGGPGEAGATGG; UniProt P78358 25-42, looked up, fragment) [Peptide P25-42] | − (− indicates <50 spots) | − (− indicates <50 spots) | − (− indicates <50 spots) | 
4 | P31-48: synthetic 18 mer peptide, amino acids 31-48 of NY-ESO-1 (AGGPGEAGATGGRGPRGA; UniProt P78358 31-48, looked up, fragment) [Peptide P31-48] | − (− indicates <50 spots) | − (− indicates <50 spots) | − (− indicates <50 spots) | 
5 | P37-54: synthetic 18 mer peptide, amino acids 37-54 of NY-ESO-1 (AGATGGRGPRGAGAARAS; UniProt P78358 37-54, looked up, fragment) [Peptide P37-54] | − (− indicates <50 spots) | − (− indicates <50 spots) | − (− indicates <50 spots) | 
6 | P43-60: synthetic 18 mer peptide, amino acids 43-60 of NY-ESO-1 (RGPRGAGAARASGPGGGA; UniProt P78358 43-60, looked up, fragment) [Peptide P43-60] | − (− indicates <50 spots) | + (+ indicates >50 spots (all + scores indicated were >100 spots)) | − (− indicates <50 spots) | one patient
7 | P67-84: synthetic 18 mer peptide, amino acids 67-84 of NY-ESO-1 (GAASGLNGCCRCGARGPE; UniProt P78358 67-84, looked up, fragment) [Peptide P67-84] | − (− indicates <50 spots) | − (− indicates <50 spots) | − (− indicates <50 spots) | 
8 | P73-90: synthetic 18 mer peptide, amino acids 73-90 of NY-ESO-1 (NGCCRCGARGPESRLLEF; UniProt P78358 73-90, looked up, fragment) [Peptide P73-90] | − (− indicates <50 spots) | − (− indicates <50 spots) | − (− indicates <50 spots) | 
9 | P79-96: synthetic 18 mer peptide, amino acids 79-96 of NY-ESO-1 (GARGPESRLLEFYLAMPF; UniProt P78358 79-96, looked up, fragment) [Peptide P79-96] | − (− indicates <50 spots) | − (− indicates <50 spots) | − (− indicates <50 spots) | 
10 | p1-18: synthetic 18 mer peptide, amino acids 1-18 of NY-ESO-1 (MQAEGRGTGGSTGDADGP; UniProt P78358 1-18, looked up, fragment) | − (− indicates <50 spots) | − (− indicates <50 spots) | − (− indicates <50 spots) | 
11 | p7-24: synthetic 18 mer peptide, amino acids 7-24 of NY-ESO-1 (GTGGSTGDADGPGGPGIP; UniProt P78358 7-24, looked up, fragment) | − (− indicates <50 spots) | − (− indicates <50 spots) | − (− indicates <50 spots) | 
12 | p85-102: synthetic 18 mer peptide, amino acids 85-102 of NY-ESO-1 (SRLLEFYLAMPFATPMEA; UniProt P78358 85-102, looked up, fragment) | − (− indicates <50 spots) | − (− indicates <50 spots) | − (− indicates <50 spots) | 
13 | p91-108: synthetic 18 mer peptide, amino acids 91-108 of NY-ESO-1 (YLAMPFATPMEAELARRS; UniProt P78358 91-108, looked up, fragment) | − (− indicates <50 spots) | − (− indicates <50 spots) | − (− indicates <50 spots) | 
14 | p97-114: synthetic 18 mer peptide, amino acids 97-114 of NY-ESO-1 (ATPMEAELARRSLAQDAP; UniProt P78358 97-114, looked up, fragment) | − (− indicates <50 spots) | + (+ indicates >50 spots (all + scores indicated were >100 spots)) | − (− indicates <50 spots) | one patient
15 | p103-120: synthetic 18 mer peptide, amino acids 103-120 of NY-ESO-1 (ELARRSLAQDAPPLPVPG; UniProt P78358 103-120, looked up, fragment) | − (− indicates <50 spots) | + (+ indicates >50 spots (all + scores indicated were >100 spots)) | − (− indicates <50 spots) | one patient
16 | p109-126: synthetic 18 mer peptide, amino acids 109-126 of NY-ESO-1 (LAQDAPPLPVPGVLLKEF; UniProt P78358 109-126, looked up, fragment) | − (− indicates <50 spots) | − (− indicates <50 spots) | − (− indicates <50 spots) | 
17 | p115-132: synthetic 18 mer peptide, amino acids 115-132 of NY-ESO-1 (PLPVPGVLLKEFTVSGNI; UniProt P78358 115-132, looked up, fragment) | − (− indicates <50 spots) | − (− indicates <50 spots) | − (− indicates <50 spots) | 
18 | p127-144: synthetic 18 mer peptide, amino acids 127-144 of NY-ESO-1 (TVSGNILTIRLTAADHRQ; UniProt P78358 127-144, looked up, fragment) | − (− indicates <50 spots) | − (− indicates <50 spots) | − (− indicates <50 spots) | 
19 | p133-150: synthetic 18 mer peptide, amino acids 133-150 of NY-ESO-1 (LTIRLTAADHRQLQLSIS; UniProt P78358 133-150, looked up, fragment) | − (− indicates <50 spots) | − (− indicates <50 spots) | − (− indicates <50 spots) | 
20 | p139-156: synthetic 18 mer peptide, amino acids 139-156 of NY-ESO-1 (AADHRQLQLSISSCLQQL; UniProt P78358 139-156, looked up, fragment) | − (− indicates <50 spots) | − (− indicates <50 spots) | − (− indicates <50 spots) | 
21 | p145-162: synthetic 18 mer peptide, amino acids 145-162 of NY-ESO-1 (LQLSISSCLQQLSLLMWI; UniProt P78358 145-162, looked up, fragment) | − (− indicates <50 spots) | − (− indicates <50 spots) | − (− indicates <50 spots) | 
